Structures can show the parent of a compound that is named as a salt. Where two headings read alike, the source gives them in different places.
Assays:
Type in all cases: cell-based
[1] = test system: Streptococcus mutans (ATCC 10449); experiment: MIC and MBC vs Streptococcus mutans, Todd Hewitt broth, standard dilution; conditions: for MBC: read-out: MBC (minimum bactericidal concentration)
Description: In another procedure, the minimum inhibitory concentration (MIC) and minimum bactericidal concentration (MBC) were determined in ppm for various compounds of the invention against the bacteria, Streptococcus mutans (ATCC 10449). The testing was performed using Todd Hewitt broth and standard dilution techniques.

Streptococcus mutans [2] = experiment: Agar dilution MIC vs Streptococcus mutans (trypticase soy agar); conditions: first screened at 500 ppm; for MIC: read-out: Minimum inhibitory concentration, Sm
Description: (§1) A tube containing 30 ml of trypticase soy agar was melted and warmed to 45° C. The test compound was added to the tube at a concentration of 0.05% (500 ppm). The mixture was stirred and poured into plates to harden. When hardened, the plates were inoculated with various aerobic and anaerobic organisms. The aerobic plates were incubated at 37° C. for 24 hours and then read for bacterial growth. The same plates were again incubated at 30° C. for an additional 48 hours at which point they were checked for yeast and fungal growth. The anaerobic plates were incubated at 37° C. in an anaerobic chamber and read at 48 hours.
(§2) After the initial readings, compounds showing sufficient activity were re-tested at various concentrations to determine the minimum inhibitory concentration (MIC) of the compounds of the invention against various bacteria and fungi.

Staphylococcus aureus = experiment: Agar dilution MIC vs Staphylococcus aureus (trypticase soy agar); conditions: first screened at 500 ppm; for MIC: read-out: Minimum inhibitory concentration, Sa
Description: as §1, §2

Salmonella typhosa = experiment: Agar dilution MIC vs Salmonella typhosa (trypticase soy agar); conditions: for MIC: Salmonella enterica, TYPHOSA, read-out: Minimum inhibitory concentration, St, Salmonella typhosa, first screened at 500 ppm; for Minimum inhibitory concentration, St: Salmonella typhosa, first screened at 500 ppm
Description: as §1, §2

Bacillus subtilis = experiment: Agar dilution MIC vs Bacillus subtilis (trypticase soy agar); conditions: first screened at 500 ppm; for MIC: read-out: Minimum inhibitory concentration, Bs
Description: as §1, §2

Escherichia coli = experiment: Agar dilution MIC vs Escherichia coli (trypticase soy agar); conditions: first screened at 500 ppm; for MIC: read-out: Minimum inhibitory concentration, Ec
Description: as §1, §2

Streptococcus mutans [3] = experiment: Acid inhibition in Streptococcus mutans (Trypticase-yeast medium with sucrose, NaOH titration); conditions: S. mutans, 48 hours at 37° C.; for minimal effective concentration: Streptococcus mutans, 48 h, read-out: Acid Inhibition (minimum concentration which prevented acid formation)
Description: In still another operation, the acid inhibiting property of these compounds was tested against the known acid producing organism, Streptococcus mutans. Test tubes containing Trypticase-yeast medium with sucrose were inoculated with S. mutans and incubated for 48 hours at 37° C. The tubes were then titrated with 0.1 N sodium hydroxide.

Aspergillus fumigatus = experiment: Agar dilution MIC vs Aspergillus fumigatus (trypticase soy agar); conditions: first screened at 500 ppm
Description: as §1, §2

Proteus mirabilis = experiment: Agar dilution MIC vs Proteus mirabilis (trypticase soy agar); conditions: first screened at 500 ppm; for MIC: read-out: Minimum inhibitory concentration, Pm
Description: as §1, §2

[4] = test system: Trichophyton mentagrophytes; experiment: Agar dilution MIC vs Trichophyton mentagrophytes (trypticase soy agar); conditions: first screened at 500 ppm
Description: as §1, §2

Aspergillus niger = experiment: Agar dilution MIC vs Aspergillus niger (trypticase soy agar); conditions: first screened at 500 ppm
Description: as §1, §2

Candida pelliculosa = experiment: Agar dilution MIC vs Candida pelliculosa (trypticase soy agar); conditions: first screened at 500 ppm
Description: as §1, §2

[5] = Streptococcus mutans ATCC 10449, Todd Hewitt broth
[6] = Streptococcus mutans, ATCC10449, Streptococcus mutans ATCC 10449, Todd Hewitt broth
[7] = Streptococcus mutans, ATCC10449, Streptococcus mutans ATCC 10449, Todd Hewitt broth, read-out: MIC
[8] = Streptococcus mutans ATCC 10449, Todd Hewitt broth, monohydrate
[9] = Streptococcus mutans ATCC 10449, Todd Hewitt broth, dihydrate
[10] = Streptococcus mutans ATCC 10449, Todd Hewitt broth, hemihydrate

SMILES: O=C(c1ccc2c(c1)[I+]c1cc(C(=O)C34CC5CC(CC(C5)C3)C4)ccc1O2)C12CC3CC(CC(C3)C1)C2 (single isomer, unassigned) [5(b)]
- MBC (minimum bactericidal concentration) [1, 5]: 1.56 ppm
- MIC [1, 5]: 0.78 ppm
- Minimum inhibitory concentration, Sm (Streptococcus mutans [2]): 0.78 PPM
- Minimum inhibitory concentration, Sa (Staphylococcus aureus): 0.78 PPM

SMILES: CN1CCN(S(=O)(=O)c2ccc3c(c2)[I+]c2cc(S(=O)(=O)N4CCN(C)CC4)ccc2O3)CC1 [4(a), 3,7-bis((4-Methyl-1-piperazinyl)sulfonyl)phenoxiodinin-5-ium bromide, hydrobromide]
- MIC (Salmonella typhosa): 500 µg/mL
- MIC (Bacillus subtilis): 100 µg/mL
- MBC [1, 6]: ≥ 63 µg/mL
- MIC [1, 7]: ≥ 63 µg/mL
- MIC (Staphylococcus aureus): 50 µg/mL
- MIC (Escherichia coli): 500 µg/mL

SMILES: CCC(=O)c1ccc2c(c1)[I+]c1cc(C(=O)CC)ccc1O2 [2(b)]
- Minimum inhibitory concentration, Bs (Bacillus subtilis): 500 PPM
- MBC (minimum bactericidal concentration) [1, 5]: 31 ppm
- MIC [1, 5]: 125 ppm
- Minimum inhibitory concentration, Sa (Staphylococcus aureus): 500 PPM
- Acid Inhibition (minimum concentration which prevented acid formation) (Streptococcus mutans [3]): 7.8 ppm

SMILES: COC(=O)c1ccc2c(c1)[I+]c1cc(C(=O)O)ccc1O2 [3(b), 3-carboxy-7-(methoxycarbonyl)-phenoxiodinin-5-ium bromide monohydrate]
- Minimum inhibitory concentration, St (Salmonella typhosa; monohydrate): 5 PPM
- Minimum inhibitory concentration, Bs (Bacillus subtilis; monohydrate): 0.5 PPM
- Minimum inhibitory concentration, Af (Aspergillus fumigatus; monohydrate): 100 PPM
- Minimum inhibitory concentration, Pm (Proteus mirabilis; monohydrate): 5 PPM
- Minimum inhibitory concentration, Tm ([4]; monohydrate): 100 PPM
- MBC (minimum bactericidal concentration) [1, 8]: 1.0 ppm
- MIC [1, 8]: 2.0 ppm
- Minimum inhibitory concentration, Sm (Streptococcus mutans [2]; monohydrate): 10 PPM
- Minimum inhibitory concentration, An (Aspergillus niger): 500 PPM
- Minimum inhibitory concentration, Sa (Staphylococcus aureus; monohydrate): 1.0 PPM
- Minimum inhibitory concentration, Ec (Escherichia coli; monohydrate): 5 PPM
- Minimum inhibitory concentration, Cp (Candida pelliculosa): 500 PPM
- Acid Inhibition (minimum concentration which prevented acid formation) (Streptococcus mutans [3]): 1.0 ppm

SMILES: O=S(=O)(c1ccc2c(c1)[I+]c1cc(S(=O)(=O)N3CCOCC3)ccc1O2)N1CCOCC1 [8(a), 3,7-Bis(4-morpholinylsulfonyl)phenoxiodinin-5-ium sulfate hydrate]
- MBC [1, 6]: > 125 µg/mL
- MIC [1, 7]: 62.5 µg/mL
- minimal effective concentration (Streptococcus mutans [3]): 8 µg/mL

SMILES: CC(=O)c1ccc2c(c1)[I+]c1cc(C(C)=O)ccc1O2 [1(a), 3,7-Diacetylphenoxiodinin-5-ium chloride dihydrate]
- MIC (Salmonella typhosa): 10 µg/mL
- Minimum inhibitory concentration, Bs (Bacillus subtilis; dihydrate): 5 PPM
- MIC (Aspergillus fumigatus; read-out: Minimum inhibitory concentration, Af): 500 µg/mL
- Minimum inhibitory concentration, Pm (Proteus mirabilis; dihydrate): 100 PPM
- Minimum inhibitory concentration, Tm ([4]; dihydrate): 500 PPM
- MBC (minimum bactericidal concentration) [1, 9]: 0.98 ppm
- MIC [1, 9]: 0.49 ppm
- MIC (Staphylococcus aureus): 5 µg/mL
- Minimum inhibitory concentration, Ec (Escherichia coli; dihydrate): 50 PPM
- Acid Inhibition (minimum concentration which prevented acid formation) (Streptococcus mutans [3]; dihydrate): 0.12 ppm

SMILES: O=C(O)c1ccc2c(c1)[I+]c1cc(C(=O)O)ccc1O2 [6(a)]
- MIC (Salmonella typhosa): 10 µg/mL
- MIC (Bacillus subtilis): 0.5 µg/mL
- MIC (Proteus mirabilis): 50 µg/mL
- MBC [1, 6]: 3.9 µg/mL
- MIC [1, 7]: 3.9 µg/mL
- MIC (Streptococcus mutans [2]): 500 µg/mL
- MIC (Staphylococcus aureus): 1 µg/mL
- MIC (Escherichia coli): 5 µg/mL
- minimal effective concentration (Streptococcus mutans [3]): 3.9 µg/mL

SMILES: CC(=O)c1ccc2c(c1)[I+]c1cc(C(C)=O)ccc1O2 [1(b), 3,7-diacetylphenoxiodinin-5-ium bromide monohydrate]
- Minimum inhibitory concentration, St (Salmonella typhosa; monohydrate): 10 PPM
- Minimum inhibitory concentration, Bs (Bacillus subtilis; monohydrate): 5 PPM
- Minimum inhibitory concentration, Pm (Proteus mirabilis; monohydrate): 500 PPM
- Minimum inhibitory concentration, Tm ([4]; monohydrate): 100 PPM
- MBC (minimum bactericidal concentration) [1, 8]: 0.5 ppm
- MIC [1, 8]: 0.1 ppm
- Minimum inhibitory concentration, Ec (Escherichia coli; monohydrate): 50 PPM
- Acid Inhibition (minimum concentration which prevented acid formation) (Streptococcus mutans [3]; monohydrate): 0.1 ppm

SMILES: CNS(=O)(=O)c1ccc2c(c1)[I+]c1cc(S(=O)(=O)NC)ccc1O2 [7(a), 3,7-Bis(methylaminosulfonyl)phenoxiodinin-5-ium bromide hemihydrate]
- MIC (Staphylococcus aureus): 500 µg/mL

SMILES: CNS(=O)(=O)c1ccc2c(c1)[I+]c1cc(S(=O)(=O)NC)ccc1O2 [7(b), 3,7-Bis(methylaminosulfonyl)phenoxiodinin-5-ium chloride]
- MIC (Salmonella typhosa): 500 µg/mL
- MIC (Streptococcus mutans [2]): 500 µg/mL
- MIC (Aspergillus niger; read-out: Minimum inhibitory concentration, An): 500 µg/mL
- MIC (Escherichia coli): 500 µg/mL

SMILES: CCC(=O)c1ccc2c(c1)[I+]c1cc(C(=O)CC)ccc1O2 [2(a), 3,7-Dipropionylphenoxiodinin-5-ium chloride hemihydrate]
- MIC (Salmonella typhosa): 50 µg/mL
- Minimum inhibitory concentration, Bs (Bacillus subtilis; hemihydrate): 50 PPM
- MIC (Proteus mirabilis): 100 µg/mL
- MIC ([4]; read-out: Minimum inhibitory concentration, Tm): 500 µg/mL
- MBC (minimum bactericidal concentration) [1, 10]: 0.5 ppm
- MIC [1, 10]: 2.0 ppm
- Minimum inhibitory concentration, Sa (Staphylococcus aureus; hemihydrate): 10 PPM
- MIC (Escherichia coli): 50 µg/mL
- Acid Inhibition (minimum concentration which prevented acid formation) (Streptococcus mutans [3]; hemihydrate): 0.1 ppm

SMILES: O=C(c1ccc2c(c1)[I+]c1cc(C(=O)C34CC5CC(CC(C5)C3)C4)ccc1O2)C12CC3CC(CC(C3)C1)C2 (single isomer, unassigned) [5(a)]
- MIC [1, 5]: 3.12 ppm
- MBC [1, 6]: 3.12 µg/mL
- Minimum inhibitory concentration, Sm (Streptococcus mutans [2]): 3.12 PPM
- Minimum inhibitory concentration, Sa (Staphylococcus aureus): 12.5 PPM

SMILES: CN(C)S(=O)(=O)c1ccc2c(c1)[I+]c1cc(S(=O)(=O)N(C)C)ccc1O2 [9(b), 3,7-Bis(dimethylaminosulfonyl)phenoxidinin-5-ium chloride]
- Minimum inhibitory concentration, Bs (Bacillus subtilis): 500 PPM
- MBC (minimum bactericidal concentration) [1, 5]: > 125 ppm
- MIC [1, 5]: > 125 ppm
- Minimum inhibitory concentration, Sa (Staphylococcus aureus): 500 PPM
- Acid Inhibition (minimum concentration which prevented acid formation) (Streptococcus mutans [3]): 0.03 ppm

SMILES: CN(C)S(=O)(=O)c1ccc2c(c1)[I+]c1cc(S(=O)(=O)N(C)C)ccc1O2 [9(a), 3,7-Bis(dimethylaminosulfonyl)phenoxiodinin-5-ium bromide]
- MIC (Bacillus subtilis): 500 µg/mL
- MBC [1, 6]: > 125 µg/mL
- MIC [1, 7]: > 125 µg/mL
- MIC (Staphylococcus aureus): 500 µg/mL
- Acid Inhibition (minimum concentration which prevented acid formation) (Streptococcus mutans [3]): 0.2 ppm

SMILES: CC(=O)c1ccc2c(c1)[I+]c1cc(C(C)=O)ccc1O2 [1(c), 3,7-diacetylphenoxiodinin-5-ium bisulfite hemihydrate]
- Minimum inhibitory concentration, St (Salmonella typhosa; hemihydrate): 5 PPM
- Minimum inhibitory concentration, Bs (Bacillus subtilis; hemihydrate): 1.0 PPM
- Minimum inhibitory concentration, Pm (Proteus mirabilis; hemihydrate): 50 PPM
- Minimum inhibitory concentration, Tm ([4]; hemihydrate): 100 PPM
- MBC (minimum bactericidal concentration) [1, 10]: 8.0 ppm
- MIC [1, 10]: 1.0 ppm
- Minimum inhibitory concentration, Ec (Escherichia coli; hemihydrate): 10 PPM
- Acid Inhibition (minimum concentration which prevented acid formation) (Streptococcus mutans [3]; hemihydrate): 0.5 ppm

— US4440943A, “Phenoxiodinin-5-ium antimicrobial compounds” (The Dow Chemical Company, priority 1982, dated 1984)
